From article PMC5936891, “A focused library synthesis and cytotoxicity of quinones derived from the natural product bolinaquinone” (Royal Society Open Science, 2018)
“Also recorded” adds a separate entry of the source. Like-named read-outs stand apart in the source and are kept apart here.

Experiments:
leukaemia L-1210 = test system: leukaemia L-1210; design: method as in ref 22 = [22]; 22 Shigemori H , Madono T , Sasaki T , Mikami Y , Kobayashi JI 1994 Nakijiquinones A and B, new antifungal sesquiterpenoid quinones with an amino acid residue from an Okinawan marine sponge . Tetrahed; settings: read-out: GI50 leukaemia L-1210; cited from earlier work
epidermoid KB cell line = test system: epidermoid KB cell line; design: method as in ref 22 = [22]; 22 Shigemori H , Madono T , Sasaki T , Mikami Y , Kobayashi JI 1994 Nakijiquinones A and B, new antifungal sesquiterpenoid quinones with an amino acid residue from an Okinawan marine sponge . Tetrahed; settings: cited from earlier work
HT29 (colon carcinoma) = assay: MTT in vitro growth inhibition assay, HT29; assay type: cell-based; settings: Homo sapiens; for inhibition at 25 µM: HT-29, 25 µM of drug, 72 h, read-out: Percentage of Cell Growth Inhibition HT29; for GI50: HT-29, 72 h drug exposure
U87 (glioblastoma) = assay: MTT in vitro growth inhibition assay, U87; assay type: cell-based; settings: for inhibition at 25 µM: 25 µM of drug, 72 h, read-out: Percentage of Cell Growth Inhibition U87; for GI50: 72 h drug exposure
MCF-7 (breast carcinoma) = assay: MTT in vitro growth inhibition assay, MCF-7; assay type: cell-based; settings: Homo sapiens; for inhibition at 25 µM: MCF7, 25 µM of drug, 72 h, read-out: Percentage of Cell Growth Inhibition MCF-7; for GI50: MCF7, 72 h drug exposure
[1] = test system: A2780 (ovarian carcinoma); assay: MTT in vitro growth inhibition assay, A2780; assay type: cell-based; settings: Homo sapiens; for inhibition at 25 µM: 25 µM of drug, 72 h, read-out: Percentage of Cell Growth Inhibition A2780; for GI50: 72 h drug exposure
H460 (lung carcinoma) = assay: MTT in vitro growth inhibition assay, H460; assay type: cell-based; settings: Homo sapiens; for inhibition at 25 µM: NCI-H460, 25 µM of drug, 72 h, read-out: Percentage of Cell Growth Inhibition H460; for GI50: NCI-H460, 72 h drug exposure
A431 (skin carcinoma) = assay: MTT in vitro growth inhibition assay, A431; assay type: cell-based; settings: Homo sapiens; for inhibition at 25 µM: A-431, 25 µM of drug, 72 h, read-out: Percentage of Cell Growth Inhibition A431; for GI50: A-431, 72 h, 72 h drug exposure
[2] = test system: Du145 (prostate carcinoma); assay: MTT in vitro growth inhibition assay, Du145; assay type: cell-based; settings: Homo sapiens; for inhibition at 25 µM: DU-145, 25 µM of drug, 72 h, read-out: Percentage of Cell Growth Inhibition Du145; for GI50: DU-145, 72 h, 72 h drug exposure
BE2-C (neuroblastoma) = assay: MTT in vitro growth inhibition assay, BE2-C; assay type: cell-based; settings: Homo sapiens, BE(2)-C, 72 h; for inhibition at 25 µM: 25 µM of drug, read-out: Percentage of Cell Growth Inhibition BE2-C; for GI50: 72 h drug exposure
SJ-G2 (glioblastoma) = assay: MTT in vitro growth inhibition assay, SJ-G2; assay type: cell-based; settings: for inhibition at 25 µM: 25 µM of drug, 72 h, read-out: Percentage of Cell Growth Inhibition SJ-G2; for GI50: 72 h drug exposure
[3] = test system: MIA (pancreatic carcinoma); assay: MTT in vitro growth inhibition assay, MIA; assay type: cell-based; settings: for inhibition at 25 µM: 25 µM of drug, 72 h, read-out: Percentage of Cell Growth Inhibition MIA; for GI50: 72 h drug exposure
[4] = test system: SMA (spontaneous murine astrocytoma); assay: MTT in vitro growth inhibition assay, SMA; assay type: cell-based; settings: Mus musculus; for inhibition at 25 µM: 25 µM of drug, 72 h, read-out: Percentage of Cell Growth Inhibition SMA; for GI50: 72 h drug exposure
[5] = test system: MCF10A (normal breast cell line); assay: MTT in vitro growth inhibition assay, MCF10A; assay type: cell-based; settings: Homo sapiens, MCF-10A; for inhibition at 25 µM: 25 µM of drug, 72 h, read-out: Percentage of Cell Growth Inhibition MCF10A; for GI50: normal breast cell line, 72 h drug exposure
[6] = test system: panel of 11 cancer cell lines and one normal cell line; assay: Cytotoxicity across the whole cell line panel (MTT); assay type: cell-based; settings: for activity at the initial screening concentration (to proceed to GI50 determination): 25 µM single dose; for potency enhancement over parent analogue: 41 vs parent 29, 43 vs parent 33, on introduction of amine substituents
Excerpt: With the desired bolinaquinone analogues 12–43 in hand, we examined their cytotoxicity against a panel of 11 tumour cell lines: HT29 (colon carcinoma), U87 and SJ-G2 (glioblastoma), MCF-7 (breast carcinoma), A2780 (ovarian carcinoma), H460 (lung carcinoma), A431 (skin carcinoma), Du145 (prostate carcinoma), BE2-C (neuroblastoma), MIA (pancreatic carcinoma), SMA (spontaneous murine astrocytoma) and a normal breast cell line (MCF10A). The inclusion of the MCF-10A cell line allowed a determination of a crude measure of relative toxicity while noting that the ultimate arbiter of toxicity requires in vivo evaluation. All analogues were initially screened at a 25 µM drug concentration.
Stock solutions were prepared as follows and stored at −20°C: drugs were stored as 40 mM solutions in DMSO. All cell lines were cultured in a humidified atmosphere 5% CO2 at 37°C. The cancer cell lines were maintained in Dulbecco's modified Eagle's medium (DMEM) (Trace Biosciences, Australia) supplemented with 10% fetal bovine serum, 10 mM sodium bicarbonate, penicillin (100 IU ml^−1), streptomycin (100 µg ml^−1) and glutamine (4 mM). The non-cancer MCF10A cell line was cultured in DMEM:F12 (1 : 1) cell culture media, 5% heat-inactivated horse serum, supplemented with penicillin (50 IU ml^−1), streptomycin (50 µg ml^−1), 20 mM Hepes, L-glutamine (2 mM), epidermal growth factor (20 ng ml^−1), hydrocortisone (500 ng ml^−1), cholera toxin (100 ng ml^−1) and insulin (10 ug ml^−1).
Cells in logarithmic growth were transferred to 96-well plates. Cytotoxicity was determined by plating cells in duplicate in 100 µl medium at a density of 2500–4000 cells per well. On day 0 (24 h after plating), when the cells were in logarithmic growth, 100 μl of medium with or without the test agent was added to each well. After 72 h, drug exposure growth inhibitory effects were evaluated using the MTT (3-[4,5-dimethylthiazol-2-yl]-2,5-diphenyl-tetrazolium bromide) assay and the absorbance read at 540 nm. Percentage growth inhibition was determined at a fixed drug concentration of 25 µM. A value of 100% is indicative of complete cell growth inhibition. Those analogues showing appreciable percentage growth inhibition underwent further dose–response analysis allowing for the calculation of a GI50 value. This value is the drug concentration at which cell growth is 50% inhibited based on the difference between the optical density values on day 0 and those at the end of drug exposure.

[7] = average over the cell line panel, read-out: average GI50

Structure (SMILES)	inhibition at 25 µM (HT29 (colon carcinoma))	GI50 (HT29 (colon carcinoma))	inhibition at 25 µM (U87 (glioblastoma))	GI50 (U87 (glioblastoma))	inhibition at 25 µM (MCF-7 (breast carcinoma))	GI50 (MCF-7 (breast carcinoma))	inhibition at 25 µM [1]	GI50 [1]	inhibition at 25 µM (H460 (lung carcinoma))	GI50 (H460 (lung carcinoma))	inhibition at 25 µM (A431 (skin carcinoma))	GI50 (A431 (skin carcinoma))	inhibition at 25 µM [2]	GI50 [2]	inhibition at 25 µM (BE2-C (neuroblastoma))	inhibition at 25 µM (SJ-G2 (glioblastoma))	inhibition at 25 µM [3]	inhibition at 25 µM [4]	inhibition at 25 µM [5]	melting point	also measured
CC1=CCC[C@H]2[C@](C)(CC3=C(O)C(=O)C=C(NCC(=O)O)C3=O)[C@@H](C)CC[C@]12C [compound 5, nakijiquinone A]	–	–	–	–	–	–	–	–	–	–	–	–	–	–	–	–	–	–	–	–	GI50 (leukaemia L-1210): 9460 nM; GI50 epidermoid KB (epidermoid KB cell line): 18920 nM
COC1=CC(=O)C(OC)=C(c2ccc(-c3ccccc3)cc2)C1=O [compound 27, 3-Biphenyl-4-yl-2,5-dimethoxycyclohexa-2,5-diene-1,4-dione]	76 ± 2%	4300 ± 100 nM	54 ± 5%	19000 ± 2300 nM	65 ± 2%	4000 ± 100 nM	70 ± 3%	4300 ± 100 nM	48 ± 3%	19000 ± 2500 nM	78 ± 1%	5700 ± 450 nM	57 ± 7%	4100 ± 100 nM	98 ± 4%	38 ± 3%	70 ± 1%	61 ± 6%	63 ± 1%	178 to 180 °C	GI50 (BE2-C (neuroblastoma)): 4100 ± 100 nM; GI50 (SJ-G2 (glioblastoma)): 31000 ± 900 nM; GI50 [3]: 4500 ± 130 nM; GI50 [4]: 19000 ± 4200 nM; GI50 [5]: 3900 ± 100 nM; GI50 [6, 7]: 10200 nM; GI50 ([6]; span over the cell line panel, read-out: GI50 values across the cell lines examined (range)): 3900 to 19000 nM
COC1=CC(=O)C(OC)=C(c2cccc(-c3ccccc3)c2)C1=O [compound 28, 3-Biphenyl-3-yl-2,5-dimethoxycyclohexa-2,5-diene-1,4-dione]	16 ± 2%	–	12 ± 9%	–	27 ± 1%	–	52 ± 17%	–	12 ± 5%	–	< 10%	–	12 ± 1%	–	59 ± 23%	18 ± 3%	< 10%	36 ± 8%	< 10%	172 to 174 °C	cytotoxicity spectrum across the panel [6]: broad-spectrum active; activity at the initial screening concentration (to proceed to GI50 determination) [6]: not sufficiently active; also recorded: did not proceed to GI50 determination
CCCNC1=CC(=O)C(NCCC)=C(c2ccccc2-c2ccccc2)C1=O [compound 41, 3-(Biaryl-2-yl)-2,5-bis-(propylamino)cyclohexa-2,5-diene-1,4-dione]	75 ± 2%	1900 nM	82 ± 3%	5100 ± 1000 nM	70 ± 3%	2000 ± 100 nM	68 ± 2%	2000 ± 100 nM	62 ± 1%	2300 ± 100 nM	90 ± 1%	2000 ± 100 nM	71 ± 2%	1900 ± 100 nM	74 ± 7%	60 ± 2%	76 ± 1%	68 ± 6%	83 ± 2%	177 to 179 °C	GI50 (BE2-C (neuroblastoma)): 1900 nM; GI50 (SJ-G2 (glioblastoma)): 3500 ± 1000 nM; GI50 [3]: 1900 nM; GI50 [4]: 3300 ± 1000 nM; GI50 [5]: 1700 ± 200 nM; activity at the initial screening concentration (to proceed to GI50 determination) [6]: sufficient activity; potency enhancement over parent analogue [6]: greater than or equal to 20 fold; GI50 [6, 7]: 2500 nM
CCCNC1=C(c2ccc3ccccc3c2)C(=O)C(NCCC)=C(c2cccc3ccccc23)C1=O [compound 43]	81 ± 2%	80 nM	91 ± 1%	2100 ± 1000 nM	77 ± 2%	170 ± 100 nM	94 ± 1%	140 ± 100 nM	76 ± 1%	110 nM	92 ± 1%	110 nM	80 ± 2%	160 ± 100 nM	44 ± 6%	55 ± 1%	90 ± 2%	80 ± 7%	89 ± 2%	210 to 213 °C	GI50 (BE2-C (neuroblastoma)): 80 nM; GI50 [3]: 100 nM; GI50 [4]: 3900 ± 3500 nM; GI50 [5]: 70 nM; activity at the initial screening concentration (to proceed to GI50 determination) [6]: sufficient activity; potency enhancement over parent analogue [6]: greater than or equal to 20 fold; GI50 [6, 7]: 690 nM
